{"source": "patent US11078220B2", "about": "“High-purity large-scale preparation of stannsoporfin” (Mallinckrodt Hospital Products IP Limited, priority 2006, dated 2021)", "key": {"[1]": {"assay": "Long-term storage stability of high-purity stannsoporfin at 25° C. and 60% relative humidity", "format": "physicochemical", "details": "25° C./60% RH", "method": "(§1) The long-term stability of the compound was studied under two different storage conditions: 25° C. (+/−2° C.) and 60% relative humidity (+/−5%); and 40° C. (+/−2° C.) and 75% relative humidity (+/−5%). Primary packaging for the compound was a 4-mil polyethylene bag and secondary packaging for the compound was a 4 mil polyethylene bag, stored in an HDPE drum.\n(§2) Table 5 and Table 6 show stability data for the batch described in Table 3, under the 25° C./60% RH and 40° C./75% RH conditions, respectively. Table 7 and Table 8 show stability data for the batch described in Table 4 under the 25° C./60% RH and 40° C./75% RH conditions, respectively. Data for the zero-month time point was taken from the batch release analysis (the zero time point represents the actual date when samples were placed in the stability test chambers). The samples were analyzed at approximately 3 months and approximately 6 months after the samples were placed under the storage conditions."}, "[2]": {"assay": "Long-term storage stability of high-purity stannsoporfin at 40° C. and 75% relative humidity", "format": "physicochemical", "details": "40° C./75% RH", "method": "as §1, §2"}, "[3]": {"details": "batch of Table 3 (0.840 kg), 0 months"}, "[4]": {"details": "batch of Table 3 (0.840 kg), 3 months"}, "[5]": {"details": "batch of Table 3 (0.840 kg), 6 months"}, "[6]": {"details": "batch of Table 4 (1.364 kg), 0 months"}, "[7]": {"details": "batch of Table 4 (1.364 kg), 3 months"}, "[8]": {"details": "batch of Table 4 (1.364 kg), 6 months"}}, "data": [{"substance": "tin (IV) mesoporphyrin IX dichloride [stannsoporfin]", "values": [{"measurement": "HPLC assay (w/w as is)", "setting": "[1]; [3]", "result": 100.4, "unit": "%"}, {"measurement": "HPLC assay (w/w, solvent-free anhydrous basis)", "setting": "[1]; [3]", "result": 100.7, "unit": "%"}, {"measurement": "HPLC purity (impurity peak at RRt retention time 0.72-0.73)", "setting": "[1]; [3]", "result": 0.06, "unit": "%"}, {"measurement": "HPLC purity (total impurities)", "setting": "[1]; [3]", "result": 0.3}, {"measurement": "Water content (Karl Fischer, coulometric)", "setting": "[1]; [3]", "result": "Trace < 1%"}, {"measurement": "HPLC assay (w/w as is)", "setting": "[1]; [4]", "result": 99.6, "unit": "%"}, {"measurement": "HPLC assay (w/w, solvent-free anhydrous basis)", "setting": "[1]; [4]", "result": 99.8, "unit": "%"}, {"measurement": "HPLC purity (impurity peak at RRt retention time 0.72-0.73)", "setting": "[1]; [4]", "result": "<0.05", "unit": "%"}, {"measurement": "HPLC purity (total impurities)", "setting": "[1]; [4]", "result": 0.22}, {"measurement": "Water content (Karl Fischer, coulometric)", "setting": "[1]; [4]", "result": "<1% (0.1%)"}, {"measurement": "HPLC assay (w/w as is)", "setting": "[1]; [5]", "result": 98.2, "unit": "%"}, {"measurement": "HPLC assay (w/w, solvent-free anhydrous basis)", "setting": "[1]; [5]", "result": 98.4, "unit": "%"}, {"measurement": "HPLC purity (impurity peak at RRt retention time 0.72-0.73)", "setting": "[1]; [5]", "result": 0.07, "unit": "%"}, {"measurement": "HPLC purity (total impurities)", "setting": "[1]; [5]", "result": 0.24}, {"measurement": "Water content (Karl Fischer, coulometric)", "setting": "[1]; [5]", "result": "<1% (0.1%)"}, {"measurement": "HPLC assay (w/w as is)", "setting": "[1]; [6]", "result": 102.3, "unit": "%"}, {"measurement": "HPLC assay (w/w, solvent-free anhydrous basis)", "setting": "[1]; [6]", "result": 102.3, "unit": "%"}, {"measurement": "HPLC parity (total impurities)", "setting": "[1]; [6]", "result": 0.22}, {"measurement": "HPLC purity (impurity peak at RRt retention time 0.72-0.73)", "setting": "[1]; [6]", "result": 0.06, "unit": "%"}, {"measurement": "Water content (Karl Fischer, coulometric)", "setting": "[1]; [6]", "result": "Trace < 1%"}, {"measurement": "HPLC assay (w/w as is)", "setting": "[1]; [7]", "result": 102.0, "unit": "%"}, {"measurement": "HPLC assay (w/w, solvent-free anhydrous basis)", "setting": "[1]; [7]", "result": 102.1, "unit": "%"}, {"measurement": "HPLC parity (total impurities)", "setting": "[1]; [7]", "result": 0.29}, {"measurement": "HPLC purity (impurity peak at RRt retention time 0.72-0.73)", "setting": "[1]; [7]", "result": 0.05, "unit": "%"}, {"measurement": "Water content (Karl Fischer, coulometric)", "setting": "[1]; [7]", "result": "<1% (0.1%)"}, {"measurement": "HPLC assay (w/w as is)", "setting": "[1]; [8]", "result": 98.4, "unit": "%"}, {"measurement": "HPLC assay (w/w, solvent-free anhydrous basis)", "setting": "[1]; [8]", "result": 98.5, "unit": "%"}, {"measurement": "HPLC parity (total impurities)", "setting": "[1]; [8]", "result": 0.19}, {"measurement": "HPLC purity (impurity peak at RRt retention time 0.72-0.73)", "setting": "[1]; [8]", "result": 0.05, "unit": "%"}, {"measurement": "Water content (Karl Fischer, coulometric)", "setting": "[1]; [8]", "result": "<1% (0.1%)"}, {"measurement": "HPLC assay (w/w as is)", "setting": "[2]; [3]", "result": 100.4, "unit": "%"}, {"measurement": "HPLC assay (w/w, solvent-free anhydrous basis)", "setting": "[2]; [3]", "result": 100.7, "unit": "%"}, {"measurement": "HPLC purity (impurity peak at RRt retention time 0.72-0.73)", "setting": "[2]; [3]", "result": 0.06, "unit": "%"}, {"measurement": "HPLC purity (total impurities)", "setting": "[2]; [3]", "result": "03"}, {"measurement": "Water content (Karl Fischer, coulometric)", "setting": "[2]; [3]", "result": "Trace <1%"}, {"measurement": "HPLC assay (w/w as is)", "setting": "[2]; [4]", "result": 100.9, "unit": "%"}, {"measurement": "HPLC assay (w/w, solvent-free anhydrous basis)", "setting": "[2]; [4]", "result": 101.2, "unit": "%"}, {"measurement": "HPLC purity (impurity peak at RRt retention time 0.72-0.73)", "setting": "[2]; [4]", "result": "<0.05", "unit": "%"}, {"measurement": "HPLC purity (total impurities)", "setting": "[2]; [4]", "result": 0.28}, {"measurement": "Water content (Karl Fischer, coulometric)", "setting": "[2]; [4]", "result": "<1% (0.2%)"}, {"measurement": "HPLC assay (w/w as is)", "setting": "[2]; [5]", "result": 99.6, "unit": "%"}, {"measurement": "HPLC assay (w/w, solvent-free anhydrous basis)", "setting": "[2]; [5]", "result": 99.8, "unit": "%"}, {"measurement": "HPLC purity (impurity peak at RRt retention time 0.72-0.73)", "setting": "[2]; [5]", "result": 0.06, "unit": "%"}, {"measurement": "HPLC purity (total impurities)", "setting": "[2]; [5]", "result": 0.26}, {"measurement": "Water content (Karl Fischer, coulometric)", "setting": "[2]; [5]", "result": "<1% (0.1%)"}, {"measurement": "HPLC assay (w/w as is)", "setting": "[2]; [6]", "result": 102.3, "unit": "%"}, {"measurement": "HPLC assay (w/w, solvent-free anhydrous basis)", "setting": "[2]; [6]", "result": 102.3, "unit": "%"}, {"measurement": "HPLC purity (impurity peak at RRt retention time 0.72-0.73)", "setting": "[2]; [6]", "result": 0.06, "unit": "%"}, {"measurement": "HPLC purity (total impurities)", "setting": "[2]; [6]", "result": 0.22}, {"measurement": "Water content (Karl Fischer, coulometric)", "setting": "[2]; [6]", "result": "Trace < 1%"}, {"measurement": "HPLC assay (w/w as is)", "setting": "[2]; [7]", "result": 101.0, "unit": "%"}, {"measurement": "HPLC assay (w/w, solvent-free anhydrous basis)", "setting": "[2]; [7]", "result": 101.1, "unit": "%"}, {"measurement": "HPLC purity (impurity peak at RRt retention time 0.72-0.73)", "setting": "[2]; [7]", "result": "<0.05", "unit": "%"}, {"measurement": "HPLC purity (total impurities)", "setting": "[2]; [7]", "result": 0.29}, {"measurement": "Water content (Karl Fischer, coulometric)", "setting": "[2]; [7]", "result": "<1% (0.1%)"}, {"measurement": "HPLC assay (w/w as is)", "setting": "[2]; [8]", "result": 97.7, "unit": "%"}, {"measurement": "HPLC assay (w/w, solvent-free anhydrous basis)", "setting": "[2]; [8]", "result": 97.8, "unit": "%"}, {"measurement": "HPLC purity (impurity peak at RRt retention time 0.72-0.73)", "setting": "[2]; [8]", "result": 0.06, "unit": "%"}, {"measurement": "HPLC purity (total impurities)", "setting": "[2]; [8]", "result": 0.24}, {"measurement": "Water content (Karl Fischer, coulometric)", "setting": "[2]; [8]", "result": "<1% (0.1%)"}]}]}
